In patent publication US12103915B2, “TEAD inhibitors and methods of uses thereof” (Insilico Medicine IP Limited, priority 2022, dated 2024):

Legend:
NCI-H226 cells = test: Cell growth assay (CellTiter-Glo); assay type: cell-based, human; settings: Homo sapiens, NCI-H226, 168 h, 7 days treatment, CellTiter-Glo luminescence, read-out: H226 CTG IC50
TEAD1 = TEAD1 (Homo sapiens, UniProt P28347); test: Thermal shift assay TEAD1; assay type: binding
In short: (§1)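 Protein melt reactions contained TEAD1 (0.2 mg/ml final) or TEAD2 (0.08 mg/ml final) plus compound at 1 or 10 μM in 0.1% DMSO. Thermal unfolding was followed by dye fluorescence on a qPCR instrument.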

TEAD2 = TEAD2 (Homo sapiens, UniProt Q15562); test: Thermal shift assay TEAD2; assay type: binding
In short: as §1

TEAD3 = TEAD3 (Homo sapiens, UniProt Q99594); test: Thermal shift assay TEAD3; assay type: binding
In short: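 Compounds at 1 or 10 μM (0.1% DMSO, PBS dilution) mixed with 0.1 mg/ml final TEAD3 and thermal shift dye, then run through a qPCR melt to follow protein unfolding.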

TEAD4 = TEAD4 (Homo sapiens, UniProt Q15561); test: Thermal shift assay TEAD4; assay type: binding
In short: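 Compounds tested at 1 and 10 μM (0.1% DMSO, PBS) against TEAD4 protein at 0.1 mg/ml final. Melting followed by thermal shift dye fluorescence during a qPCR instrument ramp.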

[1] = Pharmacokinetic profile evaluation in mice; assay type: in vivo, CD-1 mice; settings: CD-1; mouse, oral administration at 10 mg/kg, plasma
Procedure: Example C: Pharmacokinetic Profile Evaluation
Three CD-1 mice of SPF. (Sino-British SIPPR/BK Lab Animal Ltd, Shanghai.) were intravenously administrated with given compounds (Formulation: 5% DMSO+10% Solutol+85% Saline) or orally gavage administrated with given compounds (Formulation: 5% DMSO+10% Solutol+85% Saline). The blood samples were taken via cephalic vein at timepoints 0.083 h, 0.25 h, 0.5 h, 1 h, 2 h, 4 h, 8 h, and 24 h after intravenous (iv) administration or at timepoints 0.25 h, 0.5 h, 1 h, 2 h, 4 h, 6 h, 8 h, and 24 h after oral gavage administration, 30 μL/time point. Blood samples were placed in tubes containing K2-EDTA and stored on ice until centrifuged. The blood samples were centrifuged at 6800 g for 6 minutes at 2-8° C. within 1 h after collected and stored frozen at approximately −80° C. An aliquot of 20 μL plasma samples were protein precipitated with 400 μL MeOH in which contains 100 ng/mL Verapamil (IS). The mixture was vortexed for 1 min and centrifuged at 18000 g for 10 min. Transfer 400 μL supernatant to 96 well plates. An aliquot of 5 μL supernatant was injected for LC-MS/MS analysis by LC-MS/MS-27 (TQ6500+) instrument. The analytical results were confirmed using quality control samples for intra-assay variation. The accuracy of >66.7% of the quality control samples should be between 80-120% of the known value(s). Standard set of parameters including Area Under the Curve (AUC(0-t)), maximum plasma concentration (Cmax), elimination half-life (T1/2) will be calculated using noncompartmental analysis modules in FDA certified pharmacokinetic program Phoenix WinNonlin 7.0 (Pharsight, USA).

[2] = test system: human lung cancer NCI-H226 xenograft; test: In vivo anti-tumor efficacy, NCI-H226 xenograft model (TGI); set-up: species or system BALB/c Nude mice; settings: QD, oral, tumor volume at day 21
Procedure: (§2) Example D: In Vivo Pharmacodynamic and Efficacy Study
(§3) The objective of the research is to evaluate the in vivo anti-tumor efficacy of Example 58b, 64, 75a in human lung cancer NCI-H226 xenograft model in BALB/c Nude mice. (Jiangsu GemPharmatech Co., Ltd, female, 6-9 weeks)
(§4) The NCI-H226 cancer cells was maintained in vitro with RPMI1640 medium supplemented with 10% fetal bovine serum at 37° C. in an atmosphere of 5% CO2 in the air. The cells in exponential growth phase will be harvested and quantitated by cell counter before tumor inoculation. Each mouse was inoculated subcutaneously it the right front flank region with NCI-H226 tumor cells (lx 107) in 0.2 ml of PBS mixed with Matrigel (1:1) for tumor development. Animals were randomized when the average tumor volume reached 150-200 mm^3. The test article was administered to the mice orally once a day from the day of grouping, total 21 days (QD×21 Days). Body weight change of animals was monitored regularly as an indicator of drug safety. The major endpoint was to see if the tumor growth could be delayed or mice could be cured. Tumor sizes were measured two times per week in two dimensions using a caliper, and the volume were expressed in mm^3 using the formula: V=0.5a×b^2 where a and b are the long and short diameters of the tumor, respectively.
(§5) The tumor volume were then used for the calculations of TGI. TGI is calculated for each group using the formula: TGI (%)=[1−(Ti−T0)/(Ci−C0)]×100; Ti is the average tumor volume of a treatment group on a given day, T0 is the average tumor volume of the treatment group on the first day of treatment, Ci is the average tumor volume of the vehicle control group on the same day with Ti, and C0 is the average tumor volume of the vehicle group on the first day of treatment. To compare tumor volumes of different groups at a pre-specified day, Bartlett's test was used to check the assumption of homogeneity of variance across all groups.

[3] = Body weight change in NCI-H226 xenograft study; assay type: in vivo, BALB/c Nude mice; settings: QD, oral, day 21 compared to day 1
Procedure: as §2, §3, §4, §5

Chain of TEAD3 (Q99594 whole entry, species assumed): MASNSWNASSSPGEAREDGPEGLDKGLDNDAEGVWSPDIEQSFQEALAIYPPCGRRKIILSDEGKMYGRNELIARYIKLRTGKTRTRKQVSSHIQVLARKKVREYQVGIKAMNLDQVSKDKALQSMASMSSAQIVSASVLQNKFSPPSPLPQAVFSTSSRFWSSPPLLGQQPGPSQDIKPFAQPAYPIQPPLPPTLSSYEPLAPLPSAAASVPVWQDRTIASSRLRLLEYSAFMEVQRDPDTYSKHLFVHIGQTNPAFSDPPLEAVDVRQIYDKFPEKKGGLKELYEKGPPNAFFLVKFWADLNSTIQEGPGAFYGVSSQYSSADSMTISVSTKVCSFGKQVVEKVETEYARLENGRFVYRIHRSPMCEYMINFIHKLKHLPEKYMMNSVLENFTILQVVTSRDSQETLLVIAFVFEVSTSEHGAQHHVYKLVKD
Chain of TEAD2 (Q15562 whole entry, species assumed): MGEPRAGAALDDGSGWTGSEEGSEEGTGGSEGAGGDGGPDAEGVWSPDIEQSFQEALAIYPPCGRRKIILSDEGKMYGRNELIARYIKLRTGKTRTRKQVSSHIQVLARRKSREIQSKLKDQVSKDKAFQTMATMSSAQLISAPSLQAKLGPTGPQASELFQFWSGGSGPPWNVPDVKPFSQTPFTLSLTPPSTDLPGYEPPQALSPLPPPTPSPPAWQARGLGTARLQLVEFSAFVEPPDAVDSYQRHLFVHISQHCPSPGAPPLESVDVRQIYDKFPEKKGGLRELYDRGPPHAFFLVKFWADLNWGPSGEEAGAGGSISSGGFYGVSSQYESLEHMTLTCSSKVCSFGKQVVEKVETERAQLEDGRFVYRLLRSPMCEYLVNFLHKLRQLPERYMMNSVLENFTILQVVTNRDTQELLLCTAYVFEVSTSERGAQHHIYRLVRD
Chain of TEAD4 (Q15561 whole entry, species assumed): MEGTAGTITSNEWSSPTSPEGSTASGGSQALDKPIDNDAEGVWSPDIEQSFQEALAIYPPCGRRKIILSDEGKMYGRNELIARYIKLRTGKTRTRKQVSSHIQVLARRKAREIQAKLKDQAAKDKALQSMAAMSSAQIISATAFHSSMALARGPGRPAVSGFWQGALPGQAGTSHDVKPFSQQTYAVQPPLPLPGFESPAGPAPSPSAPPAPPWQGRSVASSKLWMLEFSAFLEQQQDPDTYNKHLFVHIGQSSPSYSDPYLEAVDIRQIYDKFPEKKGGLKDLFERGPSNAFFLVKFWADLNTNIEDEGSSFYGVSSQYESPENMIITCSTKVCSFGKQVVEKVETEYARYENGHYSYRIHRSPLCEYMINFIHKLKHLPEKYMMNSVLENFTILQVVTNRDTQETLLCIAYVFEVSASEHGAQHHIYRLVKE
Chain of TEAD1 (P28347 whole entry, species assumed): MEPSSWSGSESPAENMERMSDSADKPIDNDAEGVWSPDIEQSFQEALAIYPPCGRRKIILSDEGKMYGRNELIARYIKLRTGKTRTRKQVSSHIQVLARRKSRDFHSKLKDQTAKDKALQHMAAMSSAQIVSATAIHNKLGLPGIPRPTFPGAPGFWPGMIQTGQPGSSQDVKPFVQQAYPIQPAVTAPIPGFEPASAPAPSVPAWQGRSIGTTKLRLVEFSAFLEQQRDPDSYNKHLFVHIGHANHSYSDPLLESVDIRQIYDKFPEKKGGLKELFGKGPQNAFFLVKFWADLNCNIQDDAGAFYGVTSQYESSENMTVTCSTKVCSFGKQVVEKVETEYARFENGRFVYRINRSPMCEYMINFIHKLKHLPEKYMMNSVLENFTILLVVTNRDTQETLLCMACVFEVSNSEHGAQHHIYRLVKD

| IC50 (NCI-H226 cells) | TEAD1 ΔTm (TEAD1) | TEAD2 ΔTm (TEAD2) | TEAD3 ΔTm (TEAD3) | TEAD4 ΔTm (TEAD4) | AUC(0-t) [1] | Cmax [1] | half-life [1] | Compound | TGI ([2]; 1 mg/kg) | TGI ([2]; 3 mg/kg) | TGI ([2]; 10 mg/kg) | TGI ([2]; 30 mg/kg) | Body weight change ([3]; 1 mg/kg) | Body weight change ([3]; 3 mg/kg) | Body weight change ([3]; 10 mg/kg) | Body weight change ([3]; 30 mg/kg) | TGI ([2]; 60 mg/kg) | Body weight change ([3]; 60 mg/kg) |
| --- | --- | --- | --- | --- | --- | --- | --- | --- | --- | --- | --- | --- | --- | --- | --- | --- | --- | --- |
| < 100 nM | 9.2 °C | 12.9 °C | 10.9 °C | 11.3 °C | 17200 ng·h/mL | 1710 ng/mL | 3.6 h | Cn1cc2cc(Oc3ccc(C(F)(F)F)cc3)cc([C@H]3C[C@@H]3C(=O)N3CC(O)C3)c2n1 (single isomer, unassigned) [Example 58b] | 95% | 103% | 128% | 145% | +8.2% | +4.0% | +1.6% | +2.9% |  |  |
| < 100 nM | 9.0 °C | 12.2 °C | 10.0 °C | 11.3 °C | 10700 ng·h/mL | 1650 ng/mL | 2.3 h | Cn1cc2cc(Oc3ccc(C(F)(F)F)cc3)cc([C@@H]3C[C@H]3C(=O)N3CC[C@H](O)[C@@H](O)C3)c2n1 (single isomer, unassigned) [Example 75a] |  | 90% | 119% | 150% |  | +6.7% | +3.0% | +4.0% | 149% | +1.5% |
| 100 to 500 nM | 9.3 °C | 10.3 °C | 4 °C | 10.6 °C | 11500 ng·h/mL | 3100 ng/mL | 2.2 h | CNS(=O)(=O)CCc1cc(Oc2ccc(C(F)(F)F)cc2)cc2cn(C)nc12 [Example 45] |  |  |  |  |  |  |  |  |  |  |
